Measured values as given in US6462055B2, “Alpha-methylbenzyl-containing thiourea inhibitors of herpes viruses containing a phenylenediamine group” (Wyeth, priority 1998, dated 2002).
In brackets after ≈: the same amount, converted by molar mass.

Columns and labels:
[1] = system: HSV-1; assay: HSV Antiviral (ELISA) Assay in Vero cells; format: cell-based, herpes simplex virus type 1; conditions: HSV-1, Vero cells; for IC50: Human alphaherpesvirus 1, read-out: IC50 (ug/ml) HSV
Experimental: Vero cells (ATCC #CCL-81) are plated on 96-well tissue culture plates at 3.5×10^4 cells per 100 μl tissue culture DMEM (Dulbeccos modified Eagle media) supplemented with 2% fetal bovine serum (FBS) in each well. After overnight incubation @ 37° C. (in 5% CO2) and 30 minutes prior to infection with HSV-1 (multiplicity of infection equal to 0.006), cells are either untreated, or treated with test compound (multiple concentrations) or reference standard drug control. After approximately 24 hours post-infection incubation @ 37° C. (in 5% CO2), cells are fixed for ELISA assay. The primary antibody is murine anti-HSV glycoprotein D monoclonal primary antibody and the secondary antibody is goat anti-mouse IgG linked to β-galactosidase. Thus the extent of viral replication is determined by assessing β-galactosidase activity by quantifying the generation of the 4-methyl umbelliferone fluorescent cleavage product after addition of the methyl umbelliferyl-β-D-galactoside (Sigma #M1633) substrate on a microfluorimeter (365 nm for excitation and 450 nm for emission). Antiviral activity (IC50) of the test compound is determined by comparing the flourescence obtained in absence of compound to that obtained in the presence of compound.

[2] = system: VZV strain Ellen; assay: VZV Antiviral (ELISA) Assay in human foreskin fibroblast cells; format: cell-based, varicella-zoster virus; conditions: for IC50 / inhibition at 10 µg/mL: Human alphaherpesvirus 3, Fibroblast; for IC50: read-out: IC50 (ug/ml) VZV; for inhibition at 10 µg/mL: read-out: % inhibition 10 ug/ml VZV, 10 ug/ml
Experimental: For the generation of stock VZV to be used in the assay, VZV strain Ellen (ATCC #VR-1367) is used to infect human foreskin fibroblast (HFF) cells at low multiplicity (less than 0.1) and incubated overnight at 37° C. in 5% CO2. After the overnight incubation, the mixture of uninfected and VZV-infected HFF infected cells are then harvested and added to each well of 96-well plates (3.5×10^4 cells in 100 μl DMEM supplemented with 2% FBS) which contain test compound or the reference standard drug control (in 100 μl DMEM supplemented with 2% FBS per well). These cells are incubated for three days at 37° C. in 5% CO2, then fixed for ELISA assay. The primary antibody is murine anti-VZV glycoprotein II monoclonal antibody (Applied Biosystems, Inc. #13-145-100) and the secondary antibody is goat anti-mouse IgG linked to β-galactosidase. Thus the extent of viral replication is determined by assessing β-galactosidase activity by quantifying the generation of the 4-methyl umbelliferone fluorescent cleavage product after addition of the methyl umbelliferyl-β-D-galactoside (Sigma #M1633) substrate on a microfluorimeter (365 nm for excitation and 450 nm for emission). Antiviral activity (IC50) of the test compound is determined by comparing the flourescence obtained in absence of compound to that obtained in the presence of compound.

Compound: CC(NC(=S)Nc1ccc(NC(=O)c2nccc3ccccc23)cc1)c1ccc(C#N)cc1 (centres unmarked) [Example 979, Isoquinoline-1-carboxylic acid (4-{3-[1-(4-cyano-phenyl)-ethyl]-thioureido}-phenyl)-amide]
- IC50 [1]: > 10 µg/mL
- IC50 [2]: 0.13 µg/mL (≈ 0.288 µM)

Compound: COc1cc(OC)c(NC(=S)Nc2ccc(NC(=O)c3ccccc3F)cc2)cc1Br [Example 827, N-{4-[3-(5-Bromo-2,4-dimethoxy-phenyl)-thioureido]-phenyl}-2-fluoro-benzamide]
- IC50 [1]: 0.2 µg/mL (≈ 0.397 µM)
- inhibition at 10 µg/mL [2]: 70%
- IC50 [2]: 3.5 µg/mL (≈ 6.94 µM)

Compound: O=C(Nc1ccc(NC(=S)Nc2ccccc2Cl)cc1)c1ccccc1F [Example 948, N-{4-[3-(2-Chloro-phenyl)-thioureido]-phenyl}-2-fluoro-benzamide]
- IC50 [1]: 6 µg/mL (≈ 15 µM)
- inhibition at 10 µg/mL [2]: 4%
- IC50 [2]: > 10 µg/mL

Compound: COc1c(Cl)cc(NC(=S)Nc2ccc(NC(=O)c3ccccc3F)cc2)cc1Cl [Example 874, N-{4-[3-(3,5-Dichloro-4-methoxy-phenyl)-thioureido]-phenyl}-2-fluoro-benzamide]
- IC50 [1]: 5 µg/mL (≈ 10.8 µM)
- inhibition at 10 µg/mL [2]: 75%
- IC50 [2]: 3.5 µg/mL (≈ 7.54 µM)

Compound: CC(NC(=S)Nc1ccc(NC(=O)c2ccnc3ccccc23)cc1)c1ccc(F)cc1 (centres unmarked) [Example 989, Quinoline-4-carboxylic acid (4-{3-[1-(4-fluoro-phenyl)-ethyl]-thioureido}-phenyl)-amide]
- IC50 [2]: 3 µg/mL (≈ 6.75 µM)

Compound: COc1cccc(C(=O)Nc2ccc(NC(=S)Nc3cc(Cl)c(OC)c(Cl)c3)cc2)c1 [Example 875, N-{4-[3-(3,5-Dichloro-4-methoxy-phenyl)thioureido]-phenyl}-3-methoxy-benzamide]
- IC50 [1]: 6 µg/mL (≈ 12.6 µM)
- inhibition at 10 µg/mL [2]: 20%
- IC50 [2]: > 10 µg/mL

Compound: O=C(Nc1ccc(NC(=S)NCc2cc(Cl)cc(Cl)c2)cc1)c1ccccc1F [Example 583]
- IC50 (ug/ml) VZV [2]: 10 µg/mL (≈ 22.3 µM)

Compound: COc1cc(OC)c(NC(=S)Nc2ccc(NC(=O)c3ccccc3CO)cc2)cc1Cl [Example 185]
- IC50 (ug/ml) HSV [1]: 3 µg/mL (≈ 6.36 µM)
- IC50 (ug/ml) VZV [2]: >10 µg/mL
- % inhibition 10 ug/ml VZV [2]: 32%

Compound: CC(NC(=S)Nc1ccc(NC(=O)c2ccccc2F)cc1)c1ccc(C(F)(F)F)cc1F (centres unmarked) [Example 1106]
- IC50 [2]: > 7.5 µg/mL

Compound: Cc1nc2cc(NC(=S)Nc3ccc(NC(=O)c4ccccc4F)cc3)ccc2[nH]1 [Example 497]
- IC50 (ug/ml) HSV [1]: >10 µg/mL
- IC50 (ug/ml) VZV [2]: >10 µg/mL
- % inhibition 10 ug/ml VZV [2]: 10%

Compound: O=C(Nc1ccc(NC(=S)NCCc2ccccc2F)cc1)c1ccccc1F [Example 721]
- IC50 (ug/ml) HSV [1]: >10 µg/mL

Compound: Cc1cccc(NC(=S)Nc2ccc(NC(=O)c3ccccc3F)cc2)c1 [Example 432]
- IC50 (ug/ml) HSV [1]: 1.6 µg/mL (≈ 4.22 µM)
- IC50 (ug/ml) VZV [2]: >10 µg/mL
- % inhibition 10 ug/ml VZV [2]: 0%

Compound: CC(NC(=S)Nc1ccc(NC(=O)c2ccccc2F)cc1)c1ccc(S(=O)(=O)N(C)C)cc1 (centres unmarked) [Example 1008, N-(4-{3-[1-(4-Dimethylsulfamoyl-phenyl)-ethyl]-thioureido}-phenyl)-2-fluoro-benzamide]
- IC50 [1]: > 10 µg/mL
- IC50 [2]: > 10 µg/mL

Compound: COc1ccc(C(C)NC(=S)Nc2ccc(NC(=O)c3ccccc3F)cc2)cc1Cl (centres unmarked) [Example 1000, N-(4-{3-[1-(3-Chloro-4-methoxy-phenyl)-ethyl]-thioureido}-phenyl)-2-fluoro-benzamide]
- IC50 [1]: > 10 µg/mL
- IC50 [2]: 6 µg/mL (≈ 13.1 µM)

Compound: COc1cc(OC)c(NC(=S)Nc2ccc(NC(=O)c3cccc(NS(C)(=O)=O)c3)cc2)cc1Cl [Example 137]
- IC50 (ug/ml) VZV [2]: >15 µg/mL
- % inhibition 10 ug/ml VZV [2]: 72%

Compound: O=C(Nc1ccc(NC(=S)NCc2cc(F)cc(F)c2)cc1)c1ccccc1F [Example 580]
- IC50 (ug/ml) VZV [2]: >10 µg/mL

Compound: COc1ccc(NC(=S)Nc2ccc(NC(=O)c3cccc(F)c3)cc2)cc1Cl [Example 822, N-{4-[3-(3-Chloro-4-methoxy-phenyl)-thioureido]-phenyl}-3-fluoro-benzamide]
- inhibition at 10 µg/mL [2]: 0%
- IC50 [2]: > 10 µg/mL

Compound: O=C(Nc1ccc(NC(=S)NCCOc2ccccc2)cc1)c1ccccc1F [Example 625]
- IC50 [2]: 4 µg/mL (≈ 9.77 µM)

Compound: C[C@H](NC(=S)Nc1ccc(NC(=O)c2nccc3ccccc23)cc1)c1ccc(Cl)cc1 [Example 1109]
- IC50 [2]: 0.03 µg/mL (≈ 0.0651 µM)

Compound: CSc1ccc(NC(=S)Nc2ccc(NC(=O)c3c(F)cccc3F)cc2)cc1Cl [Example 848, N-{4-[3-(3-Chloro-4-methylsulfanyl-phenyl)-thioureido]-phenyl}-2,6-difluoro-benzamide]
- inhibition at 10 µg/mL [2]: 101%
- IC50 [2]: 1.3 µg/mL (≈ 2.8 µM)

Compound: CC(NC(=S)Nc1ccc(NC(=O)c2ccc3ncccc3c2)cc1)c1ccc(F)cc1 (centres unmarked) [Example 990, Quinoline-6-carboxylic acid (4-{3-[1-(4-fluoro-phenyl)-ethyl]-thioureido}-phenyl)-amide]
- IC50 [2]: 3.5 µg/mL (≈ 7.87 µM)

Compound: CC(NC(=S)Nc1ccc(NC(=O)c2nccc3ccccc23)cc1)c1ccc(F)cc1 (centres unmarked) [Example 1110]
- IC50 (ug/ml) VZV [2]: 0.05 µg/mL (≈ 0.112 µM)

Compound: O=C(Nc1ccc(NC(=S)NCc2ccc(F)c(C(F)(F)F)c2)cc1)c1ccccc1F [Example 623]
- IC50 [2]: > 10 µg/mL

Compound: CC(C)Cc1cc(NC(=S)Nc2ccc(NC(=O)c3ccccc3F)cc2)cc(C(F)(F)F)c1 [Example 578]
- IC50 (ug/ml) VZV [2]: >10 µg/mL

Compound: O=C(Nc1ccc(NC(=S)NCc2cc(F)cc(C(F)(F)F)c2)cc1)c1ccccc1F [Example 586]
- IC50 [2]: > 10 µg/mL

Compound: COc1cc(OC)c(NC(=S)Nc2ccc(NC(=O)c3ccccc3-c3ccccc3)cc2)cc1Cl [Example 182]
- IC50 (ug/ml) VZV [2]: >10 µg/mL
- % inhibition 10 ug/ml VZV [2]: 32%

Compound: CC(C)(NC(=S)Nc1ccc(NC(=O)c2ccccc2F)cc1)c1ccccc1 [Example 727]
- IC50 (ug/ml) HSV [1]: >10 µg/mL

Compound: O=C(Nc1ccc(NC(=S)NCc2ccc(N3CCCCC3)c(C(F)(F)F)c2)cc1)c1ccccc1F [Example 616]
- IC50 (ug/ml) VZV [2]: >10 µg/mL

Compound: CC(C)(C)c1cccc(NC(=S)Nc2ccc(NC(=O)c3ccccc3F)cc2)c1 [Example 869, N-{4-[3-(3-tert-Butyl-phenyl)-thioureido]-phenyl}-2-fluoro-benzamide]
- inhibition at 10 µg/mL [2]: 77%
- IC50 [2]: 3 µg/mL (≈ 7.12 µM)

Compound: O=C(Nc1ccc(NC(=S)Nc2ccc(I)c(Cl)c2)cc1)c1ccccc1F [Example 916, N-{4-[3-(3-Chloro-4-iodo-phenyl)-thioureido]-phenyl}-2-fluoro-benzamide]
- inhibition at 10 µg/mL [2]: 30%
- IC50 [2]: > 10 µg/mL

Compound: COc1ccc(NC(=S)Nc2ccc(NC(=O)c3ccccc3F)cc2)cc1I [Example 810]
- IC50 [2]: > 7.5 µg/mL

Compound: COc1ccc(NC(=S)Nc2ccc(NC(=O)c3ccc(F)cc3)cc2)cc1Cl [Example 823, N-{4-[3-(3-Chloro-4-methoxy-phenyl)-thioureido]-phenyl}-4-fluoro-benzamide]
- inhibition at 10 µg/mL [2]: 7%
- IC50 [2]: > 10 µg/mL

Compound: O=C(Nc1ccc(NC(=S)Nc2ccc(C(F)(F)F)c(Cl)c2)cc1)c1ccccc1F [Example 911, N-{4-[3-(3-Chloro-4-trifluoromethyl-phenyl)-thioureido]-phenyl}-2-fluoro-benzamide]
- inhibition at 10 µg/mL [2]: 38%
- IC50 [2]: > 10 µg/mL

Compound: COc1cc(OC)c(NC(=S)Nc2ccc(NC(=O)c3ccccc3C)cc2)cc1Br [Example 829, N-{4-[3-(5-Bromo-2,4-dimethoxy-phenyl)-thioureido]-phenyl}-2-methyl-benzamide]
- inhibition at 10 µg/mL [2]: 50%
- IC50 [2]: > 15 µg/mL

Compound: CC(NC(=S)Nc1ccc(NC(=O)c2ccccc2C#N)cc1)c1ccc(F)cc1 (centres unmarked) [Example 993, 2-Cyano-N-(4-{3-[1-(4-fluoro-phenyl)-ethyl]-thioureido}-phenyl)-benzamide]
- IC50 [2]: 2.7 µg/mL (≈ 6.45 µM)

Compound: CCC(C)Cc1cc(NC(=S)Nc2ccc(NC(=O)c3ccccc3F)cc2)cc(C(F)(F)F)c1 (centres unmarked) [Example 577]
- IC50 (ug/ml) VZV [2]: >7.5 µg/mL

Compound: Cc1cc(C)cc(CNC(=S)Nc2ccc(NC(=O)c3ccccc3F)cc2)c1 [Example 725]
- IC50 (ug/ml) HSV [1]: >10 µg/mL

Compound: CC(C)(C)c1ccc(CNC(=S)Nc2ccc(NC(=O)c3ccccc3F)cc2)cc1 [Example 724]
- IC50 (ug/ml) HSV [1]: >10 µg/mL

Compound: COc1ccc(NC(=S)Nc2ccc(NC(=O)c3ccccc3OC)cc2)cc1Cl [Example 818, N-{4-[3-(3-Chloro-4-methoxy-phenyl)-thioureido]-phenyl}-2-methoxy-benzamide]
- inhibition at 10 µg/mL [2]: 32%
- IC50 [2]: > 10 µg/mL

Compound: COc1cc(OCC(F)(F)F)ccc1NC(=S)Nc1ccc(NC(=O)c2ccccc2F)cc1 [Example 1006, 2-Fluoro-N-(4-{3-[2-methoxy-4-(2,2,2-trifluoro-ethoxy)-phenyl]-thioureido}-phenyl)-benzamide]
- IC50 [2]: 11 µg/mL (≈ 22.3 µM)

Compound: CC(NC(=S)Nc1ccc(NC(=O)c2ccccc2I)cc1)c1ccc(F)cc1 (centres unmarked) [Example 812]
- IC50 [2]: 3.4 µg/mL (≈ 6.55 µM)
